# Experimental data published in patent US12454531B2, “Substituted piperazine derivatives useful as T cell activators” (BRISTOL-MYERS SQUIBB COMPANY, priority 2019, dated 2025).
# Read-outs that look alike come from different tables or passages of the source.
# Tests used:
# [1] = target: DGKα (Homo sapiens (Human), UniProt P23743); assay: Assay 1: In Vitro DGK Inhibition Assays, Method A (DGKα LIPGLO, extruded liposome); assay type: biochemical; settings: extruded liposome substrate, 150 μM ATP
# DGKα, sequence (P23743 whole entry): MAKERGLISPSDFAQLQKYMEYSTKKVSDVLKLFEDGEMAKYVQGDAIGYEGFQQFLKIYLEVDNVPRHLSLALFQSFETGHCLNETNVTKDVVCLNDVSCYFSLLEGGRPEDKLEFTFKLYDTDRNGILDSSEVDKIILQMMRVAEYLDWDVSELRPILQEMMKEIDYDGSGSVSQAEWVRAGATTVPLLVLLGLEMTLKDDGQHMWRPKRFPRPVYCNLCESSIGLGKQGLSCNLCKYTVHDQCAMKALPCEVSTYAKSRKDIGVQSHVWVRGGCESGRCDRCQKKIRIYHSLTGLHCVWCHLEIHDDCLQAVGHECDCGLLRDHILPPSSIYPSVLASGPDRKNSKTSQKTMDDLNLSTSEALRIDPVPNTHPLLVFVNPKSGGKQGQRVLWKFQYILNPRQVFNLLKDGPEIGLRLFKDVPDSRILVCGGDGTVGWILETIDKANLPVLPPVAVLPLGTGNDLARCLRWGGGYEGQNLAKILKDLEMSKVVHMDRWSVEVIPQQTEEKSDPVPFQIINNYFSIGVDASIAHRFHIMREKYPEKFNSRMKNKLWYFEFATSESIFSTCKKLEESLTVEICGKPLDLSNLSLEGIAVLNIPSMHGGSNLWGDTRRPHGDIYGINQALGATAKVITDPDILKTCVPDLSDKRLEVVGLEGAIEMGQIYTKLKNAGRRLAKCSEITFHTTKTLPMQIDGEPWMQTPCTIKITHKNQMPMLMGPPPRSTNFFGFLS
# Description: (§1) Assay 1: In Vitro DGK Inhibition Assays—Method A
# (§2) The DGKα and DGKζ reactions were performed using either extruded liposome (DGKα and DGKζ LIPGLO assays) or detergent/lipid micelle substrate (DGKα and DGKζ assays). The reactions were carried out in 50 mM MOPS pH 7.5, 100 mM NaCl, 10 mM MgCl2, 1 μM CaCl2), and 1 mM DTT (assay buffer). The reactions using a detergent/lipid micelle substrate also contained 50 mM octyl B-D-glucopyranoside. The lipid substrate concentrations were 11 mM PS and 1 mM DAG for the detergent/lipid micelle reactions. The lipid substrate concentrations were 2 mM PS, 0.25 mM DAG, and 2.75 mM PC for the extruded liposome reactions. The reactions were carried out in 150 μM ATP. The enzyme concentrations for the DGKα and DGKζ were 5 nM
# (§3) The compound inhibition studies were carried out as follows: 50 nL droplets of each test compound (top concentration 10 mM with 11 point, 3-fold dilution series for each compound) solubilized in DMSO were transferred to wells of a white 1536 well plate (Corning 3725). A 5 mL enzyme/substrate solution at 2× final reaction concentration was prepared by combining 2.5 mL 4× enzyme solution (20 nM DGKα or DGKζ (prepared as described below) in assay buffer) and 2.5 mL of either 4× liposome or 4× detergent/lipid micelle solution (compositions described below) and incubated at room temperature for 10 minutes. Next, 1 μL 2× enzyme/substrate solution was added to wells containing the test compound and reactions were initiated with the addition of 1 μL 300 uM ATP. The reactions were allowed to proceed for 1 hr, after which 2 μL Glo Reagent (Promega V9101) was added and incubated for 40 minutes. Next, 4 μL Kinase Detection Reagent was added and incubated for 30 minutes. Luminescence was recorded using an EnVision microplate reader. […] The compounds were evaluated at 11 concentrations to determine IC50.
# (§4) The lipid composition was 5 mol % DAG (Avanti 8008110), 40 mol % PS (Avanti 840035P), and 55 mol % PC (Avanti 850457) at a total lipid concentration of 15.2 mg/mL for the 4× liposome solution. The PC, DAG, and PS were dissolved in chloroform, combined, and dried in vacuo to a thin film. The lipids were hydrated to 20 mM in 50 mM MOPS pH 7.5, 100 mM NaCl, 5 mM MgCl2, and were freeze-thawed five times. The lipid suspension was extruded through a 100 nm polycarbonate filter eleven times. […] The liposome preparation was stored at 4° C. for as long as four weeks.
# (§5) Baculovirus amplification was achieved using infected Sf9 cells at 1:1500 virus/cell ratios, and grown for 65 hours at 27° C. post-transfection.
# (§6) The cells were lysed using nitrogen cavitation method with a nitrogen bomb (Parr Instruments), and the lysates were clarified by centrifugation. […] The three steps column chromatography included nickel affinity resin capture (i.e. HisTrap FF crude, GE Healthcare), followed by size exclusion chromatography (i.e. HiLoad 26/600 Superdex 200 prep grade, GE Healthcare for DGK-alpha, and HiPrep 26/600 Sephacryl S 300_HR, GE Healthcare for DGK-zeta). The third step was ion exchange chromatography, and differed for the two isoforms. DGKα was polished using Q-Sepharose anion exchange chromatography (GE Healthcare). DGKζ was polished using SP Sepharose cation exchange chromatography (GE Healthcare). The proteins were delivered at concentrations of ≥2 mg/mL. The formulation buffers were identical for both proteins: 50 mM Hepes, pH 7.2, 500 mM NaCl, 10% v/v glycerol, 1 mM TCEP, and 0.5 mM EDTA.
# [2] = target: DGKζ (Homo sapiens (Human), UniProt Q13574); assay: Assay 1 or 2: In Vitro DGK Inhibition Assays (DGKζ LIPGLO, extruded liposome); assay type: biochemical; settings: extruded liposome substrate, 150 μM ATP
# DGKζ, sequence (Q13574 other isoform, or with tags, fused parts or gaps): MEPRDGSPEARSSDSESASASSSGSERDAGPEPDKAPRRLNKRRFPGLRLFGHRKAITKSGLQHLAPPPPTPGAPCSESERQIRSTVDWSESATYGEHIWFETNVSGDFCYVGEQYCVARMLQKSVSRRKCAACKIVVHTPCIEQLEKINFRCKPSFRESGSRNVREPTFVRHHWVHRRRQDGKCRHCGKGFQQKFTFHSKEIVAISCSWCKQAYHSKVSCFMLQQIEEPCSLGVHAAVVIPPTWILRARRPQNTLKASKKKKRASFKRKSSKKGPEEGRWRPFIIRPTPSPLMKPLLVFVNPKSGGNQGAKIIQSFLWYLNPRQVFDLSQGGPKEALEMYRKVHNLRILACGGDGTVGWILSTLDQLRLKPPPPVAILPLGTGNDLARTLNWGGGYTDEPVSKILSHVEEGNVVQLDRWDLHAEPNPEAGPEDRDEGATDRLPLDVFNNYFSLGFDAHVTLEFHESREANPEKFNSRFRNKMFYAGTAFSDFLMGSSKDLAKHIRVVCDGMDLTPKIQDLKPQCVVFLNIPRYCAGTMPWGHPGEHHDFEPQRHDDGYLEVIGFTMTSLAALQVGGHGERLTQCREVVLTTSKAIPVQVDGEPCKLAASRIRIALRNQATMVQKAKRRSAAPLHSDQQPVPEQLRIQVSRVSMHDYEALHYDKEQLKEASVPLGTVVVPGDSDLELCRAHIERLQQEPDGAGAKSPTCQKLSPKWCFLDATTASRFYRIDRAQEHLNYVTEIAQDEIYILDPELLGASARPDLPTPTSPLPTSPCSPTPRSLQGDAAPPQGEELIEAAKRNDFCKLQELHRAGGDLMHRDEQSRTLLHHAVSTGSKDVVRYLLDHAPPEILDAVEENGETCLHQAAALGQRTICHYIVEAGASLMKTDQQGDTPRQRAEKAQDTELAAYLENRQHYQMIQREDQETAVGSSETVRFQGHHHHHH
# Description: as §1, §2, §3, §4, §5, §6
# Assay 2: In Vitro DGK Inhibition Assays—Method B
# The DGKα and DGKζ reactions were performed using either extruded liposome (DGKα and DGKζ LIPGLO assays) or detergent/lipid micelle substrate (DGKα and DGKζ assays).
# [3] = tested on: Human whole blood IFN-γ; assay: Assay 10: Human Whole Blood IFN-γ Assay; assay type: cell-based; settings: anti-CD3 and anti-CD28 stimulation, 100% = 3 μM reference compound, read-out: INFg Whole Blood Normalized Agonist EC50
# Description: Assay 10: Human Whole Blood IFN-γ Assay
# Human venous whole blood (22.5 μL per well), obtained from healthy donors, was pre-treated with compounds for one hour at 37° C. in a humidified 95% air/5% CO2 incubator. The blood was stimulated with 2.5 μL anti-human CD3 and anti-CD28 mAb at a final concentration of 1 μg/mL each for 24 hours at 37° C. IFN-7 in the supernatants was measured using AlphLISA kit (Cat #AL217).
Structure (SMILES),IC50 [1],IC50 [2],EC50 ([3]; 24 hours),"EC50 ([3]; Homo sapiens, 24 h)"
"C[C@@H]1CN(c2cc(=O)n(C)c3ccc(C#N)nc23)[C@@H](C)CN1C(C(=O)NCC(F)F)c1ccc(F)cc1 (stereo partly drawn) [Example 5, 2-((2R,5S)-4-(6-cyano-1-methyl-2-oxo-1,2-dihydro-1,5-naphthyridin-4-yl)-2,5-dimethylpiperazin-1-yl)-N-(2,2-difluoroethyl)-2-(4-fluorophenyl)acetamide]",2.04 µM,3.27 µM,–,–
C[C@@H]1CN(c2cc(=O)n(C)c3ccc(C#N)nc23)[C@@H](C)CN1C(C(=O)N1CCCCC1)c1ccc(F)cc1 (stereo partly drawn) [Example 12],5.12 µM,6.68 µM,–,–
"C[C@@H]1CN(c2cc(=O)n(C)c3ccc(C#N)nc23)[C@@H](C)CN1C(C(=O)N1CCOCC1)c1ccc(F)cc1 (stereo partly drawn) [Example 17, 8-((2S,5R)-4-(1-(4-fluorophenyl)-2-morpholino-2-oxoethyl)-2,5-dimethylpiperazin-1-yl)-5-methyl-6-oxo-5,6-dihydro-1,5-naphthyridine-2-carbonitrile]",2.56 µM,7.75 µM,1.49 µM,–
"C[C@@H]1CN(c2cc(=O)n(C)c3ccc(C#N)nc23)[C@@H](C)CN1C(C(=O)N1CCN(C)CC1)c1ccc(F)cc1 (stereo partly drawn) [Example 19, 8-((2S,5R)-4-(1-(4-fluorophenyl)-2-(4-methylpiperazin-1-yl)-2-oxoethyl)-2,5-dimethylpiperazin-1-yl)-5-methyl-6-oxo-5,6-dihydro-1,5-naphthyridine-2-carbonitrile]",37.1 µM,172 µM,–,3.44 µM
"C[C@@H]1CN(c2cc(=O)n(C)c3ccc(C#N)nc23)[C@@H](C)CN1C(C(=O)Nc1ccon1)c1ccc(F)cc1 (stereo partly drawn) [Example 29, 2-((2R,5S)-4-(6-cyano-1-methyl-2-oxo-1,2-dihydro-1,5-naphthyridin-4-yl)-2,5-dimethylpiperazin-1-yl)-2-(4-fluorophenyl)-N-(isoxazol-3-yl)acetamide]",5.57 µM,2.44 µM,–,3.75 µM
"C#CCCC1(CCCOC(=O)C(c2ccc(F)cc2)N2C[C@H](C)N(c3cc(=O)n(C)c4ccc(C#N)nc34)C[C@H]2C)N=N1 (stereo partly drawn) [Example 57, 3-(3-(but-3-yn-1-yl)-3H-diazirin-3-yl)propyl 2-((2R,5S)-4-(6-cyano-1-methyl-2-oxo-1,2-dihydro-1,5-naphthyridin-4-yl)-2,5-dimethylpiperazin-1-yl)-2-(4-fluorophenyl)acetate]",0.07 µM,0.19 µM,–,0.12 µM
"C[C@@H]1CN(c2cc(=O)n(C)c3ccc(C#N)nc23)[C@@H](C)CN1C(C(=O)NCCOCCOCCNC(=O)c1ccc2c(c1)C(=O)OC21c2ccc(O)cc2Oc2cc(O)ccc21)c1ccc(F)cc1 (stereo partly drawn) [Example 65, N-(2-(2-(2-(2-((2R,5S)-4-(6-cyano-1-methyl-2-oxo-1,2-dihydro-1,5-naphthyridin-4-yl)-2,5-dimethylpiperazin-1-yl)-2-(4-fluorophenyl)acetamido)ethoxy)ethoxy)ethyl)-3′,6′-dihydroxy-3-oxo-3H-spiro[isobenzofuran-1,9′-xanthene]-5-carboxamide]",96.5 µM,56.6 µM,–,–
"C[C@@H]1CN(c2cc(=O)n(C)c3ccc(C#N)nc23)[C@@H](C)CN1C(C(=O)OCCOCCOCCNC(=O)c1ccc2c(c1)C(=O)OC21c2ccc(O)cc2Oc2cc(O)ccc21)c1ccc(F)cc1 (stereo partly drawn) [Example 68, 2-(2-(2-(3′,6′-dihydroxy-3-oxo-3H-spiro[isobenzofuran-1,9′-xanthene]-5-carboxamido)ethoxy)ethoxy)ethyl 2-((2R,5S)-4-(6-cyano-1-methyl-2-oxo-1,2-dihydro-1,5-naphthyridin-4-yl)-2,5-dimethylpiperazin-1-yl)-2-(4-fluorophenyl)acetate]",0.16 µM,0.41 µM,–,–

# Further compounds by falling IC50 [1], results first:
IC50 [1],IC50 [2],Structure (SMILES),EC50 ([3]; 24 hours),"EC50 ([3]; Homo sapiens, 24 h)"
253 µM,83.3 µM,"C[C@@H]1CN(c2cc(=O)n(C)c3ccc(C#N)nc23)[C@@H](C)CN1C(C(=O)N1CCN(C)CC1)c1ccc(F)cc1 (stereo partly drawn) [Example 20, 8-((2S,5R)-4-(1-(4-fluorophenyl)-2-(4-methylpiperazin-1-yl)-2-oxoethyl)-2,5-dimethylpiperazin-1-yl)-5-methyl-6-oxo-5,6-dihydro-1,5-naphthyridine-2-carbonitrile]",–,–
24.8 µM,42.9 µM,"C[C@@H]1CN(c2cc(=O)n(C)c3ccc(C#N)nc23)[C@@H](C)CN1C(C(=O)N1CCOCC1)c1ccc(F)cc1 (stereo partly drawn) [Example 18, 8-((2S,5R)-4-(1-(4-fluorophenyl)-2-morpholino-2-oxoethyl)-2,5-dimethylpiperazin-1-yl)-5-methyl-6-oxo-5,6-dihydro-1,5-naphthyridine-2-carbonitrile]",20 µM,–
0.83 µM,4.12 µM,"CC(C)N(C)C(=O)CC(c1ccc(F)cc1)N1C[C@H](C)N(c2cc(=O)n(C)c3ccc(C#N)nc23)C[C@H]1C (stereo partly drawn) [Example 42, 3-[(2R,5S)-4-(6-cyano-1-methyl-2-oxo-1,2-dihydro-1,5-naphthyridin-4-yl)-2,5-dimethylpiperazin-1-yl]-3-(4-fluorophenyl)-N-methyl-N-(propan-2-yl)propanamide]",1.37 µM,–
0.08 µM,0.19 µM,"C[C@@H]1CN(c2cc(=O)n(C)c3ccc(C#N)nc23)[C@@H](C)CN1C(C(=O)OCCC1(C)N=N1)c1ccc(F)cc1 (stereo partly drawn) [Example 62, 2-(3-methyl-3H-diazirin-3-yl)ethyl 2-((2R,5S)-4-(6-cyano-1-methyl-2-oxo-1,2-dihydro-1,5-naphthyridin-4-yl)-2,5-dimethylpiperazin-1-yl)-2-(4-fluorophenyl)acetate]",–,0.57 µM
0.02 µM,0.14 µM,"C[C@@H]1CN(c2cc(=O)n(C)c3ccc(C#N)nc23)[C@@H](C)CN1C(C(=O)Nc1ccon1)c1ccc(F)cc1 (stereo partly drawn) [Example 30, 2-((2R,5S)-4-(6-cyano-1-methyl-2-oxo-1,2-dihydro-1,5-naphthyridin-4-yl)-2,5-dimethylpiperazin-1-yl)-2-(4-fluorophenyl)-N-(isoxazol-3-yl)acetamide]",–,–
